Results from patent publication US20240067639A1, “SMALL MOLECULES THAT TARGET THE RNA THAT CAUSES ALS” (EXPANSION THERAPEUTICS, INC., priority 2020, published 2024).
Read-outs that look alike come from different tables or passages of the source.

Columns and labels:
[1] = test system: RAN translation of (G4C2)66-No ATG-GFP in HEK293T cells; experiment: Cell-based assay of RAN translation inhibition (GFP/mCherry reporter); conditions: Homo sapiens, HEK-293T, read-out: RANT IC50
[2] = biological target: Biotin-labeled RNA (target RNA); experiment: BLI affinity measurement (ForteBio Octet RED384); format: binding; conditions: Table G

Kd [2] [µM] | Structure (SMILES) | IC50 ([1]; Table G, HEK293T) [µM] | IC50 [1] [µM]
0.18 | Cc1c2ccncc2cc2c3cc(OCC(N)=O)cc(F)c3n(C)c12 [Compound 264, 2-(7-fluoro-5,6-dimethyl-pyrido[4,3-b]carbazol-9-yl)oxyacetamide] | > 100 | 
0.72 | Cc1c2ccncc2cc2c3cc(OC[C@H]4CCCN4)cc(F)c3n(C)c12 [Compound 265, (R)-7-fluoro-5,6-dimethyl-9-(pyrrolidin-2-ylmethoxy)-6H-pyrido[4,3-b]carbazole] | > 100 | 
0.69 | Cc1c2ccncc2cc2c3cc(OCCCN4CCCCC4)ccc3n(C)c12 [Compound 266, 5,6-dimethyl-9-(3-(piperidin-1-yl)propoxy)-6H-pyrido[4,3-b]carbazole] | 7.8 | 
8 | Cc1c2ccncc2cc2c3cc(OCC[C@@H](C)N)ccc3n(C)c12 [Compound 267, (R)-4-((5,6-dimethyl-6H-pyrido[4,3-b]carbazol-9-yl)oxy)butan-2-amine] | > 21 | 
8.7 | Cc1c2ccncc2cc2c3cc(OCC[C@H](C)N)ccc3n(C)c12 [Compound 268, (S)-4-((5,6-dimethyl-6H-pyrido[4,3-b]carbazol-9-yl)oxy)butan-2-amine] | 2.9 | 
1.4 | Cc1c2ccncc2cc2c3cc(OC[C@H](C)Nc4ccccn4)ccc3n(C)c12 [Compound 269, (S)—N-(1-((5,6-dimethyl-6H-pyrido[4,3-b]carbazol-9-yl)oxy)propan-2-yl)pyridin-2-amine] | > 100 | 
0.51 | Cc1c2ccnc(C(=O)N[C@H](C)CN(C)C)c2cc2c3cc(OCC(N)=O)ccc3n(C)c12 [Compound 270, 9-(2-amino-2-oxo-ethoxy)-N-[(1R)-2-(dimethylamino)-1-methyl-ethyl]-5,6-dimethyl-pyrido[4,3-b]carbazole-1-carboxamide] | 0.36 | 
0.13 | Cc1c2ccnc(C(=O)N[C@H](C)CN(C)C)c2cc2c3cc(OC[C@H](C)N)ccc3n(C)c12 [Compound 271, 9-[(2S)-2-aminopropoxy]-N-[(1R)-2-(dimethylamino)-1-methyl-ethyl]-5,6-dimethyl-pyrido[4,3-b]carbazole-1-carboxamide] | > 100 | 
7.7 | CC(=O)N[C@@H](C)COc1ccc2c(c1)c1cc3cnccc3c(C)c1n2C [Compound 272, (S)—N-(1-((5,6-dimethyl-6H-pyrido[4,3-b]carbazol-9-yl)oxy)propan-2-yl)acetamide] | 2 | 
0.14 | Cc1c2ccncc2cc2c3cc(OC[C@H](C)NC(N)=O)ccc3n(C)c12 [Compound 273, (S)-1-(1-((5,6-dimethyl-6H-pyrido[4,3-b]carbazol-9-yl)oxy)propan-2-yl)urea] | 0.39 | 
0.062 | CCN[C@@H](C)COc1ccc2c(c1)c1cc3cnccc3c(C)c1n2C [Compound 275, (2S)-1-(5,6-dimethylpyrido[4,3-b]carbazol-9-yl)oxy-N-ethyl-propan-2-amine] | 20 | 
0.041 | CN[C@@H](C)COc1ccc2c(c1)c1cc3cnccc3c(C)c1n2C [Compound 276, (S)-1-((5,6-dimethyl-6H-pyrido[4,3-b]carbazol-9-yl)oxy)-N-methylpropan-2-amine] | 12 | 
0.083 | COCCN[C@@H](C)COc1ccc2c(c1)c1cc3cnccc3c(C)c1n2C [Compound 278, (2S)-1-(5,6-dimethylpyrido[4,3-b]carbazol-9-yl)oxy-N-(2-methoxyethyl)propan-2-amine] | 21 | 
0.25 | Cc1c2ccncc2cc2c3cc(OC[C@H](C)NCC(F)F)ccc3n(C)c12 [Compound 279, (2S)—N-(2,2-difluoroethyl)-1-(5,6-dimethylpyrido[4,3-b]carbazol-9-yl)oxy-propan-2-amine] | 2.4 | 
0.88 | Cc1c2ccncc2cc2c3cc(C(=O)NC[C@H](C)N)ccc3n(C)c12 [Compound 280, (S)—N-(2-aminopropyl)-5,6-dimethyl-6H-pyrido[4,3-b]carbazole-9-carboxamide] | 35 | 
0.46 | Cc1c2ccncc2cc2c3cc(C(=O)N[C@@H](C)CN)ccc3n(C)c12 [Compound 281, (S)—N-(1-aminopropan-2-yl)-5,6-dimethyl-6H-pyrido[4,3-b]carbazole-9-carboxamide] | 17 | 
0.14 | Cc1c2ccncc2cc2c3cc(C(=O)N[C@H](C)CN)ccc3n(C)c12 [Compound 282, N-[(1R)-2-amino-1-methyl-ethyl]-5,6-dimethyl-pyrido[4,3-b] carbazole-9-carboxamide] | 0.67 | 
0.09 | Cc1c2ccncc2cc2c3cc(OC[C@H](C)NC(C)C)ccc3n(C)c12 [Compound 283, (S)-1-((5,6-dimethyl-6H-pyrido[4,3-b]carbazol-9-yl)oxy)-N-isopropylpropan-2-amine] | 2.4 | 

Kd [2] [µM] | Structure (SMILES) | IC50 ([1]; Table G, HEK293T) [µM] | IC50 [1] [µM]
0.35 | Cc1c2ccncc2cc2c3cc(C(=O)NC[C@@H](C)N)ccc3n(C)c12 [Compound 284, (R)—N-(2-aminopropyl)-5,6-dimethyl-6H-pyrido[4,3-b]carbazole-9-carboxamide] | 1.8 | 
0.12 | Cc1c2ccncc2cc2c3cc(C(=O)NC[C@@H](C)O)ccc3n(C)c12 [Compound 285, (R)—N-(2-hydroxypropyl)-5,6-dimethyl-6H-pyrido[4,3-b]carbazole-9-carboxamide] | 0.9 | 
2.6 | Cc1c2ccncc2cc2c3cc(C(=O)N[C@H](C)CN(C)C)ccc3n(C)c12 [Compound 286, N-[(1R)-2-(dimethylamino)-1-methyl-ethyl]-5,6-dimethyl-pyrido[4,3-b]carbazole-9-carboxamide] | 10 | 
1.5 | Cc1c2ccncc2cc2c3cc(C(=O)NC[C@H](C)O)ccc3n(C)c12 [Compound 287, N-[(2S)-2-hydroxypropyl]-5,6-dimethyl-pyrido[4,3-b]carbazole-9-carboxamide] | 1.4 | 
9.6 | COC[C@H](C)NC(=O)c1ccc2c(c1)c1cc3cnccc3c(C)c1n2C [Compound 288, (S)—N-(1-methoxypropan-2-yl)-5,6-dimethyl-6H-pyrido[4,3-b]carbazole-9-carboxamide] | 2 | 
5 | Cc1c2ccncc2cc2c3cc(C(=O)N[C@H](C)CO)ccc3n(C)c12 [Compound 289, (R)—N-(1-hydroxypropan-2-yl)-5,6-dimethyl-6H-pyrido[4,3-b]carbazole-9-carboxamide] | 2.4 | 
> 20 | Cc1c2ccnc(C(=O)NCC(N)=O)c2cc2c3ccccc3n(C)c12 [Compound 290, N-(2-amino-2-oxoethyl)-5,6-dimethyl-6H-pyrido[4,3-b]carbazole-1-carboxamide] | 8.3 | 
3.8 | Cc1c2ccncc2cc2c3cc(C(=O)N[C@@H](C)CO)ccc3n(C)c12 [Compound 291, N-[(1S)-2-hydroxy-1-methyl-ethyl]-5,6-dimethyl-pyrido[4,3-b]carbazole-9-carboxamide] | 1.8 | 
0.3 | Cc1c2ccncc2cc2c3cc(C(=O)NC[C@@H](C)N(C)C)ccc3n(C)c12 [Compound 294, N-[(2R)-2-(dimethylamino)propyl]-5,6-dimethyl-pyrido[4,3-b]carbazole-9-carboxamide] | 13 | 
0.35 | Cc1c2ccncc2cc2c3cc(C(=O)N[C@@H](C)CN(C)C)ccc3n(C)c12 [Compound 295, N-[(1S)-2-(dimethylamino)-1-methyl-ethyl]-5,6-dimethyl-pyrido[4,3-b]carbazole-9-carboxamide] | 41 | 
5.3 | Cc1c2ccncc2cc2c3cc(C(=O)NCC(N)=O)ccc3n(C)c12 [Compound 296, N-(2-amino-2-oxoethyl)-5,6-dimethyl-6H-pyrido[4,3-b]carbazole-9-carboxamide] | 3 | 
2.7 | Cc1c2ccncc2cc2c3cc(C(=O)N[C@@H](C)C(N)=O)ccc3n(C)c12 [Compound 297, (S)—N-(1-amino-1-oxopropan-2-yl)-5,6-dimethyl-6H-pyrido[4,3-b]carbazole-9-carboxamide] | 2.9 | 
6.6 | Cc1c2ccncc2cc2c3cc(C(=O)N[C@H](C)C(N)=O)ccc3n(C)c12 [Compound 298, (R)—N-(1-amino-1-oxopropan-2-yl)-5,6-dimethyl-6H-pyrido[4,3-b]carbazole-9-carboxamide] | 1.4 | 
0.24 | COC(C)(C)CNC(=O)c1ccc2c(c1)c1cc3cnccc3c(C)c1n2C [Compound 299, N-(2-methoxy-2-methylpropyl)-5,6-dimethyl-6H-pyrido[4,3-b]carbazole-9-carboxamide] | 3.8 | 
0.35 | Cc1c2ccncc2cc2c3cc(C(=O)NC[C@H](C)N(C)C)ccc3n(C)c12 [Compound 300, (S)—N-(2-(dimethylamino)propyl)-5,6-dimethyl-6H-pyrido[4,3-b]carbazole-9-carboxamide] | 8.6 | 
8.2 | COCC(C)(C)NC(=O)c1ccc2c(c1)c1cc3cnccc3c(C)c1n2C [Compound 302, N-(1-methoxy-2-methylpropan-2-yl)-5,6-dimethyl-6H-pyrido[4,3-b]carbazole-9-carb-oxamide] | 9.1 | 
0.18 | Cc1c2ccncc2cc2c3cc(Oc4ccnc(N)c4)ccc3n(C)c12 [Compound 303, 4-((5,6-dimethyl-6H-pyrido[4,3-b]carbazol-9-yl)oxy)pyridin-2-amine] | > 100 | 

Structure (SMILES) | Kd [2] [µM] | IC50 ([1]; Table G, HEK293T) [µM] | IC50 [1] [µM]
CCCN[C@@H](C)COc1ccc2c(c1)c1cc3cnccc3c(C)c1n2C [Compound 277, (2S)-1-(5,6-dimethylpyrido[4,3-b]carbazol-9-yl)oxy-N-propyl-propan-2-amine] | 0.02 |  | 1.5
Cc1c2ccnc(C(=O)N[C@H](C)CN(C)C)c2cc2c3ccccc3n(C)c12 [Compound 292, (R)—N-(1-(dimethylamino)propan-2-yl)-5,6-dimethyl-6H-pyrido[4,3-b]carbazole-1-carboxamide] | 5.5 |  | 13
